Source: patent US10416153B2, “Chemical fluorescent probes for detecting biofilms” (priority 2015, dated 2019)

What was measured:
purified amyloid = purified amyloid (Pseudomonas aeruginosa, UniProt Q9I2F0); experiment: Surface plasma resonance assay with purified amyloid immobilized on chips; assay type: binding
Procedure: In a biofilm screening, two different types of biofilms (biofilm versus amyloid deficient biofilm) were treated with compounds and hits were identified by selective staining of biofilms containing amyloid structures. Thus, the binding affinity of four compounds with the purified amyloid subunit (fibril) protein was validated by surface plasma resonance assay. The subunit protein was immobilized on chips and each of compounds was flowed continuously. Thioflavin T, BDN1 B2 and BDNAC3 E6 were tested with hit compounds. […] (A) TEM images of purified amyloid proteins. Scale bar=400 nm. (B) Surface plasma resonance assay of four amyloid targeting compounds with purified amyloid.
Amyloids were prepared in HEPES buffer (0.01 M HEPES, pH 7.4, 0.15 M NaCl, 3 mM EDTA and 0.005% P20). Amyloid fibers were fragmented with sonication at 80 Hz for 10 s and centrifuged at 14 000 g for 30 s to remove any large fibers. Concentrate (40 μL) was mixed with 10 mM sodium acetate (120 μL), pH 5.5 right before immobilization.
SPR experiments were performed at 25° C. using Biacore T-200 biosensor with research grade CM5-S sensor chips (Biacore, GE Healthcare). Carboxymethylated CM5-S chips were activated using 70 μL of 0.2 M 1-ethyl-3-[3-(dimethylamino)propyl] carbodiimide hydrochloride (EDC) and 0.05 M N-hydroxysuccinimide (NHS) in a 1:1 ratio. Amyloid in sodium acetate solution (100 μL) was injected over the activated surface until an immobilization level of 7700 response units (RU) was reached. Ethanolamine hydrochloride (1.0 M), pH 8.5 was injected across the surface for 5 min to block any residual activated-unreacted carboxyl groups. Compounds were dissolved into HEPES buffer containing final concentration of 5% DMSO and serially diluted to 340 nM, 1.03, 3.09, 9.26, 27.78, 83.33 μM. Tht+ was prepared similarly as positive control. Replicates of the diluted compounds were injected across a unmodified flow cell and amyloid-immobilized flow cell in a serial manner for association phase of 60 s followed by dissociation phase of 5 min. […] The chip surface was rinsed using HEPES buffer. All sensorgrams were double-referenced with responses from unmodified channel and blank HEPES buffer injections. Equilibrium responses from the compounds were plotted against logarithmic of their corresponding concentrations where the binding affinities were calculated from 50% saturation.
First batch of screening was done under varying amyloid expression conditions for specifically isolating amyloid targeting compounds and four compounds were isolated from cell based screening. […] Finally, four compounds were examined by surface plasma resonance assay whether those have binding specificity with putative target, namely amyloid. Four hit compounds were examined with thioflavin T and two negative controls on chips after immobilizing purified amyloid.

P. aeruginosa (PAO1-GFP) = experiment: Eye infection model, imaging of infected cornea under TRITC channel; assay type: in vivo; conditions: mouse cornea infected with PAO1-GFP for 2 days, 10 minutes incubation with compound
Procedure: (A) Propagation of Pseudomonas aeruginosa (PAO1-GFP) after infecting into mouse eyes. GFP signals were detected after 12 hours later after infecting bacteria and signals were fully saturated after 24 hours later; Scale bar=2 mm. (B) Tests of amyloid targeting compounds in eye infection models. The model was generated by inoculation of a GFP tagged P. aeruginosa PAO1 strain into the eye after making scratches in cornea. Images were taken in bright field and TRITC from ketamine/xylazine anesthetized mice and compounds signals were examined under TRITC channel after incubation with compounds for 10 minutes at room temperature. Scale bar=2 mm.
P. aeruginosa (PAO1-GFP) was grown at 37° C. in ABTGC media for 16 h. 500 μL of cultured PAO1-GFP was transferred to 1.5 mL Eppendorf tube and centrifuged at 14 000 g for 3 min. Supernatant was removed and pellet was washed with PBS buffer 3 times. Finally, pellet was resuspended in 250 μL of PBS buffer.
Mice were anesthetized ketamine/xylazine by peritoneal injection before scratches were made in cornea with blade. PAO1-GFP (1 μL, 2×107˜10^8 CFU) dissolved in PBS buffer was treated in left eye and PBS buffer was treated in right eye. P. aeruginosa inoculated mice were incubated for 2 days before in vivo experiments. Animal handling was in accordance with the Institutional Aminal Care and Use Committee of Singapore Bioimaging Consortium (Agency of Science, Technology and Research, Singapore).
Biofilm is stained by amyloid targeting compounds through interacting with FAP proteins which is one of the components for intact biofilm. Thus, amyloid targeting compounds were tested in eye infection model which is one of the naturally reported symptoms of P. aeruginosa containing biofilms. Eye infection model was generated in black mouse. […] GFP signals were detected after 12 hours incubation with P. aeruginosa-GFP bacteria.
Fluorescence signals under TRITC channel were checked to confirm infection on cornea and amyloid compounds were tested under TRITC channel after incubation for 10 minutes. […]

[1] = tested on: P. aeruginosa biofilm (PAO1-GFP); experiment: Mouse implant model, silicone tubes coated with PAO1-GFP biofilm; assay type: in vivo, BALB/c mice; conditions: 100 μM (200 μL) injected via the peritoneal cavity, 2 h before recovering implants; listed as CDy11
From the text: (§1) CLSM images of a GFP tagged P. aeruginosa PAO1 strain colonizing silicone implants after removal from BALB/c mice at day 1 post insertion. Green fluorescent areas represent P. aeruginosa. Insertion of silicone tube into mice which was precoated with (A) PAO1Δfap-GFP and (B) PAO1-GFP biofilms. Images of the microcolonies adhering to the silicone implants with CDy11. Only PAO1-GFP biofilms coated silicone tube was stained by CDy11; Scale bars=10 μm.
(§2) One bacterial colony (PAO1-GFP) was picked up from the plate to inoculate an overnight culture in LB (Luria Broth) media in 37° C. incubator with 110 rpm/min for 20 h. Silicone tubes (Ole Dich) were cut with a thickness of 4 mm and were sterilized in 0.5% NaClO for overnight. Next day, 25 mL of overnight cultured media was transferred to 50 mL conical tube and pellet was collected by centrifuging at 3000 rpm for 10 min. Subsequently, pellet was suspended with 2 mL of LB media before optical density was observed under 600 nm wavelength.
(§3) Sterilized silicone was washed twice in 0.9% NaCl solution. Silicone tubes (8 pieces) in 50 mL flask were incubated with 10 mL of diluted bacteria (OD600=0.1) in 0.9% NaCl solution in rotationary shaker at 37° C. with 110 rpm/min for 20 h. […]
(§4) All silicone tubes were collected after 2 h incubation to observe CDy11 fluorescence of the inner surface of the silicone tube by means of laser confocal scanning microscopy. […]

[2] = tested on: PAO1Δfap-GFP strain biofilm; experiment: Mouse implant model, silicone tubes coated with PAO1Δfap-GFP biofilm; assay type: in vivo, BALB/c mice; conditions: 100 μM (200 μL) injected via the peritoneal cavity, 2 h before recovering implants
From the text: as §1, §2, §3, §4

Immune cells = experiment: Mouse implant model, silicone tubes without P. aeruginosa precoating; assay type: in vivo, BALB/c mice; conditions: same amount injected via the peritoneal cavity; data not shown
Procedure: After anesthesia of mice with ketamine/xylazine mix by intraperitoneal injection, the mouse was placed ventral side up on plate. Fur was clipped and the skin was swabbed with 70% ethanol. An incision of approximately 0.5-1 cm was made in the left groin area. Then an implant prepared the day before was inserted into peritoneal cavity via the incision. The incision was closed with a suture and healed on a warm pad at 26-28° C.
The inventors also applied a mouse implant model to test the capacity of CDy11 (BDNAC3 D8) to detect P. aeruginosa biofilms in a surgical format. Silicone tubes were precolonized by bacteria and subsequently inserted into the peritoneal cavity 1 day before the experiment. BALB/c mice were assigned to each of the two groups and 100 μM CDy11 (200 μL) was injected into the mice via the peritoneal cavity 2 h before recovering the implants. As a mock control, a similar volume of buffer was injected into the second set of mice. In addition, CDy11 was injected into a set of mice which had been installed with uncolonized silicone tubes in the peritoneal cavity.
All silicone tubes were collected after 2 h incubation to observe CDy11 fluorescence of the inner surface of the silicone tube by means of laser confocal scanning microscopy. […] The silicone tubes without P. aeruginosa precoating were also examined by injection of same amount of CDy11. […]

purified amyloid, sequence (Q9I2F0 25-340): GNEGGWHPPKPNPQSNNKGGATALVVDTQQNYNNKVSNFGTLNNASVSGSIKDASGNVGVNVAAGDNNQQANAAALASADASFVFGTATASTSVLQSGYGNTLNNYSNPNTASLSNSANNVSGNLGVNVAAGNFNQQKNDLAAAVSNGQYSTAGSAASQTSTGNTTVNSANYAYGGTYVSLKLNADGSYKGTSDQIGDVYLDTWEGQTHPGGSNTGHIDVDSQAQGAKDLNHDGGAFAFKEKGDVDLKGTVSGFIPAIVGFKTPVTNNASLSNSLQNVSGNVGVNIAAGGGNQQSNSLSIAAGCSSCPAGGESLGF

`Cc1ccc2c(c1)sc(-c1ccc(N(C)C)cc1)[n+]2C` [thioflavin T, reference compound] was tested, and the Kd (purified amyloid) was 85 ± 7 µM.
For `COc1ccc(/C=C/c2cc(C)c3n2[B-](F)(F)[N+]2=CC=CC2=C3c2ccc(NC(C)=O)cc2)c(F)c1` [BDNAC3 D8], the Kd (purified amyloid) was 29 ± 2 µM, the “visualization of infected eyes” value (P. aeruginosa (PAO1-GFP)) was “visualized” and the “staining of PAO1-GFP biofilm coated silicone tube” value [1] was “specifically stained”. The “staining of PAO1Δfap-GFP biofilm coated silicone tube” value [2] was “not stained” and the “staining of immune cells in silicone tubes without P. aeruginosa precoating” value (Immune cells) was “not stained”.
In the case of `COc1cc(Cl)cc(/C=C/c2cc(C)c3n2[B-](F)(F)[N+]2=CC=CC2=C3c2ccc(N)cc2)c1OC` [BDN2 H2], the Kd (purified amyloid) is reported as 61 ± 3 µM and the “visualization of infected eyes” value (P. aeruginosa (PAO1-GFP)) is reported as “visualized”.
`Cc1cc(/C=C/c2ccc(-c3ccc([N+](=O)[O-])cc3)o2)n2c1C(c1ccc(N)cc1)=C1C=CC=[N+]1[B-]2(F)F` [BDN3 G7] was tested, and the Kd (purified amyloid) was 28 ± 5 µM and the “visualization of infected eyes” value (P. aeruginosa (PAO1-GFP)) was “visualized”.
Work on `COc1cc(/C=C/c2cc(C)c3n2[B-](F)(F)[N+]2=CC=CC2=C3c2ccc(N)cc2)c(Br)c(Br)c1O` [BDN3 F3] yielded a Kd (purified amyloid) of 16 ± 1 µM.
